Test results taken from paper PMC5686190 (Scientific Reports, 2017).
Values after ≈ are worked out from the molar mass of the structure shown.

Key:
[1] = molecular target: recombinant NA-1 (H1N1 neuraminidase) (Influenza A virus, UniProt Q9IGQ6); experiment: biochemical
bacterial NA = settings: cited from earlier work
mouse liver sialidase = settings: cited from earlier work

Chain of recombinant NA-1 (H1N1 neuraminidase) (Q9IGQ6 whole entry, looked up): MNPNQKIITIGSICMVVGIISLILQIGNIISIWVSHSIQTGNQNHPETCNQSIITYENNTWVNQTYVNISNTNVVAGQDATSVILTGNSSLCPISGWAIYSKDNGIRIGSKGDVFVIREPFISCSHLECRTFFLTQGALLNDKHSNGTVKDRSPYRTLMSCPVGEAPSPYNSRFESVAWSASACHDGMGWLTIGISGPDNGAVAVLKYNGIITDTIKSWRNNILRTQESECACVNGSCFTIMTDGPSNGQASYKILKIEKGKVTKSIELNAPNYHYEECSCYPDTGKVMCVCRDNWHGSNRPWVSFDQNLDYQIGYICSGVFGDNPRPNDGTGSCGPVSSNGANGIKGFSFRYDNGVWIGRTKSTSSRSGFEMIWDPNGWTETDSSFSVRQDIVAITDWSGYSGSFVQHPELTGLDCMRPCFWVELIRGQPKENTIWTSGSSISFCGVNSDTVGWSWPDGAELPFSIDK

Row | Compound | IC10 on NA-1 activity [1] | IC50 [1] | Inhibition of bacterial NA activity (bacterial NA) | Inhibition of mouse liver sialidase (mouse liver sialidase) | IC50 on NA-1 activity [1]
1 | COc1cc2c(cc1O)C[C@H]1c3cc(O)c(OC)cc3CC[N@@+]1(C)C2 [Phellodendrine] | 23.1 ± 2.7 µg/mL | 599 µM | – | – | –
2 | O=c1cc(-c2ccccc2)oc2cc(O)c(O)c(O)c12 [Baicalein] | 75.0 ± 29.1 µg/mL (≈ 278 µM) | 590 µM | – | – | –
3 | COc1ccc2cc3[n+](cc2c1OC)CCc1cc2c(cc1-3)OCO2 [Berberine] | 3.1 ± 0.8 µg/mL | 234 µM | – | – | –
4 | COc1cc2c(cc1O)CC[n+]1cc3c(OC)c(OC)ccc3cc1-2 [Jatrorrhizine] | 1.9 ± 0.1 µg/mL | 67.1 µM | inhibited | – | –
5 | COc1c(O[C@@H]2O[C@H](C(=O)O)[C@@H](O)[C@H](O)[C@H]2O)cc2oc(-c3ccccc3)cc(=O)c2c1O [Oroxylin A 7-O-β-D-glucuronide] | 29.3 ± 7.8 µg/mL (≈ 63.6 µM) | 621 µM | – | – | –
6 | O=C(O)[C@H]1O[C@@H](Oc2cc3oc(-c4ccccc4)cc(=O)c3c(O)c2O)[C@H](O)[C@@H](O)[C@@H]1O [Baicalin] | – | 1650 µM | – | – | –
7 | COc1c(O)cc2oc(-c3ccccc3)cc(=O)c2c1O [Oroxylin A] | 5.1 ± 1.4 µg/mL (≈ 17.9 µM) | 202 µM | – | – | –
8 | COC(=O)C1=CO[C@@H](O[C@@H]2O[C@H](CO)[C@@H](O)[C@H](O)[C@H]2O)[C@@H]2C(CO)=CC[C@H]12 [Geniposide] | 2.8 ± 0.2 µg/mL (≈ 7.21 µM) | 87.5 µM | – | – | –
9 | COc1cc2c(cc1OC)-c1cc3ccc(OC)c(OC)c3c[n+]1CC2 [Palmatine] | 2.1 ± 0.1 µg/mL | 50.5 µM | inhibited | – | –
10 | COc1c(O)cc(O)c2c(=O)cc(-c3ccccc3)oc12 [Wogonin] | 34.0 ± 5.1 µg/mL (≈ 120 µM) | 866 µM | – | inhibited | –
11 | COc1c(O[C@@H]2O[C@H](C(=O)O)[C@@H](O)[C@H](O)[C@H]2O)cc(O)c2c(=O)cc(-c3ccccc3)oc12 [Wogonoside] | 19.6 ± 2.7 µg/mL (≈ 42.6 µM) | 405 µM | – | inhibited | –
12 | c1c2c(cc3c1OCO3)-c1cc3ccc4c(c3c[n+]1CC2)OCO4 [Coptisine] | – | 327 µM | inhibited | – | –
13 | COc1cc2c(cc1OC)-c1cc3ccc4c(c3c[n+]1CC2)OCO4 [Epiberberine] | – | 99.9 µM | – | – | –
14 | CCC(CC)[C@H](NC(C)=O)[C@@H]1[C@H](O)[C@@H](C(=O)O)C[C@H]1N=C(N)N [Peramivir, reference compound] | 64.8 ± 8.4 µg/mL (≈ 197 µM) | – | – | – | 478.8 ± 15.6 µg/mL (≈ 1460 µM)
